Patent publication US12410157B2, “Compound useful as toll-like receptor 7 activation inhibitor” (TOYAMA PREFECTURAL UNIVERSITY, priority 2020, dated 2025)
“And” between values parts separate entries of the source, which are not always exact repeats. Identical values can stand only once.

Tests used:
[1] = test system: Cytochrome P450 (CYP), mouse liver microsomes; assay: Metabolic stability (CYP) using mouse liver microsomes, HPLC; assay type: in vitro ADME; settings: for Area (%) of peak: LC-UV (220 nm)
Method: For CB-7, B2-24, and B2-5A, 10 mg/mL DMSO solution was used. Each chemical compound was diluted with acetonitrile to 0.1 mg/mL, which was used as the analytical standard. Mouse liver microsomal fractions were rapidly thawed in a warm bath at 37° C. and kept on ice. Reaction buffer containing CYP cofactor was prepared on ice and mixed with the microsomal fractions. The reaction solution was preincubated at 37° C. for 5 minutes, and then the test substance solution was added and mixed well by pipetting. The volume of the reaction solution was 200 μL and the final concentration of the test substance was 0.1 mg/mL. The reaction solution was incubated at 37° C. for 30 minutes or 2 hours, and the reaction was stopped by adding 3 times the volume of acetonitrile and vortexing. After the reaction was stopped, the samples were centrifuged, and each supernatant was separated and dried in an evaporator. 50 μL of 50% acetonitrile solution was added to each solidified sample, and each sample was re-dissolved by vortexing for 5 minutes. Each redissolved solution was centrifuged, and each supernatant was subjected to HPLC analysis using a HITACHI Lachrom ELITE (HITACHI) as a HPLC system and COSMOSIL 5C18-MS-II, 4.6 mmI.D.×150 mm (nacalai tesque Co.) as a column.
Metabolic stability analysis of CB-7 and B2-24-4-5A·HCOOH was performed by the method of Example 5.

[2] = test system: systemic lupus erythematosus model mice (NZBWF1); assay: Therapeutic effect in mouse model of spontaneous systemic lupus erythematosus; assay type: in vivo
Method: Systemic lupus erythematosus model mice (NZBWF1, 20 weeks old, female, n=55) were divided into saline-administered group (control, n=25), B2-24-4-5A·HCOOH-administered group (n=10), B2-24-4·HCOOH-administered group (n=5) and HCQ-administered group (n=15). The saline-administered group received saline (100 l) orally once a day, every day; the B2-24-4-5A·HCOOH-administered group received 10 mg/kg of B2-24-4-5A·HCOOH (100 l) orally once a day, every day; the B2-24-4·HCOOH-administered group received 10 mg/kg of B2-24-4·HCOOH (100 l) orally once a day, every day; the HCQ-administered group received 10 mg/kg of HCQ (100 l) orally once a day, every day. Fifteen weeks after the start of treatment, urine was collected from surviving mice in the saline-administered group (control, n=17), B2-24-4-5A·HCOOH-administered group (n=10), B2-24-4·HCOOH-administered group (n=5), and HCQ-administered group (n=12), and the mice were euthanized. After euthanasia, blood was drawn from the abdominal aorta of the mice, and the kidneys and spleen were removed.
Mice that died of natural causes during the 15-week period from the start of treatment were counted as deaths, and survival analysis was performed using the Kaplan Meier method. Blood collected from the abdominal aorta of each mouse, excluding the deceased cases, was centrifuged and serum was prepared. Determination of urea nitrogen and creatinine levels in serum was entrusted to Oriental Yeast Co. Albumin levels in urine were determined by ELISA (used kit: Levis Urinary Albumin-Mouse (S-type) (trade name) (Fujifilm Wako Shibayagi Corporation)). The removed kidneys were fixed with 4% (w/v) paraformaldehyde, and immunohistochemical staining was entrusted to Morpho Technology, Inc. In PAS-stained kidney tissue sections, histological findings of 100 glomeruli were evaluated. For increased cells and substrate in the mesangial area, endothelial cell swelling and cellular infiltration of the capillary lumen (intratubular proliferation), and glomeruli with inflammatory crescents (extratubular proliferation), each of the 100 glomeruli was assigned a grade from grade 0 to grade 2 according to severity and scored on a 6-point scale.
FIG. 10F is a photograph showing C3 deposition in the glomeruli of a mouse (#1) in the saline-administered group, a mouse (#10) in the B2-24-4-5A·HCOOH-administered group, a mouse (#4) in the B2-24-4·HCOOH-administered group and a mouse (#14) in the HCQ-administered group. […] In the renal tissue sections of a mouse (#1) in the saline-administered group, findings of active glomerulonephritis such as diffuse mesangial and intratubular proliferation were observed. […] The plots in FIGS. 10B, 10C, and 10D show the data for each individual, each bold line is the mean of the group data, and each error bar standard error. Scale bars in FIGS. 10E and 10F represent 100 μm. […]

[3] = Plasma concentration in normal mice after oral administration; assay type: in vivo, mice (C57BL/6N); settings: C57BL/6N mice, 1 mg orally
Method: Plasma concentrations of CB-7 or B2-24-4-5A·HCOOH were measured in normal mice (C57BL/6N, 11 weeks old, female) after oral administration. 1 mg of CB-7 or B2-24-4-5A·HCOOH was administered orally to mice C57BL/6N. After 0.5, 1, 2, 4, or 8 hours, blood was collected from mice C57BL/6N to prepare plasma. The concentration of CB-7 or B2-24-4-5A·HCOOH in the plasma was measured by LC/MS/MS.

C=C(C)[C@@H]1CC[C@]2(COC(=O)C2)C[C@H]1c1ccc(CN2CCNCC2)cc1 [B2-24-4-5A·HCOOH]
Number of peaks detected by HPLC ([1]; Example 9): 6 | Area (%) of peak ([1]; Example 9, 0 h): 100% | Area (%) of peak ([1]; Example 9, incubation 0.5 h): 95.4% | Area (%) of peak ([1]; Example 9, incubation 2.0 h): 88.4% | Drug metabolism mainly by CYPs compared to CB-7 ([1]; words): significantly improved drug metabolism | Surviving mice fifteen weeks after the start of treatment ([2]; 10 mg/kg orally once a day, groups started with n=10, n=5, n=15 (HCQ)): 10 | score ([2]; per mouse, histological score on a 6-point scale): 0.23 and 0.15 and 0.42 and 0.09 (2×) and 0.24 and 0.03 and 0.04 and 0.14 and 0.52 | Inside 0 ([2]; per mouse, of 100 glomeruli, endothelial cell swelling and cellular infiltration of capillary lumen, Grade 0): 99 (2×) and 100 (3×) and 78 and 96 and 94 and 97 and 74 | Inside 1 ([2]; per mouse, of 100 glomeruli, endothelial cell swelling and cellular infiltration of capillary lumen, Grade 1): 1 (2×) and 0 (3×) and 18 and 4 and 6 and 3 and 20 | Inside 2 ([2]; per mouse, of 100 glomeruli, endothelial cell swelling and cellular infiltration of capillary lumen, Grade 2): 0 (8×) and 4 and 6 | Outside 0 ([2]; per mouse, of 100 glomeruli, glomerulus with semilunar, Grade 0): 99 and 100 (9×) | Outside 1 ([2]; per mouse, of 100 glomeruli, glomerulus with semilunar, Grade 1): 1 and 0 (9×) | Outside 2 ([2]; per mouse, of 100 glomeruli, glomerulus with semilunar, Grade 2): 0 | Mes0 ([2]; per mouse, of 100 glomeruli, increase in cells and substrates in the mesangium region, Grade 0: None, 10 mg/kg orally, 15 weeks, 10 mg/kg): 80 (3×) and 86 (2×) and 92 (2×) and 97 and 96 and 94 | Mes1 ([2]; per mouse, of 100 glomeruli, mesangium region, Grade 1: Moderate or lower): 19 and 13 and 12 and 8 (2×) and 20 (2×) and 3 and 4 and 6 | Mes2 ([2]; per mouse, of 100 glomeruli, mesangium region, Grade 2: Moderate or higher): 1 (2×) and 2 and 0 (7×) | Persistence in plasma compared to CB-7 [3]: remains in plasma for a longer time than CB-7 | concentration at 8 h ([3]; female, mouse, plasma, po, LC/MS/MS): ~500 ng/mL
